Species: Rattus norvegicus
Experiment: DrugMatrix - Regimen: Daily Repeat
Assay type: toxicity, organism-based, Sprague-Dawley
Parameters: regimen Daily Repeat, gender Male, age 6-8 weeks
Conditions: in vivo, po, route oral GAVAGE, […]; for ABSOLUTE BASOPHIL / ABSOLUTE EOSINOPHIL / ABSOLUTE LYMPHOCYTE / ABSOLUTE MONOCYTE / ABSOLUTE SEGMENTED NEUTROPHIL / BASOPHIL / EOSINOPHIL / ERYTHROCYTE COUNT / HEMATOCRIT / HEMOGLOBIN / LEUKOCYTE COUNT / LYMPHOCYTE / MEAN CORPUSCULAR HEMOGLOBIN / MEAN CORPUSCULAR HEMOGLOBIN CONCENTRATION / MEAN CORPUSCULAR VOLUME / MONOCYTE / NEUTROPHIL / NUCLEATED RED BLOOD CELLS / PLATELET COUNT: tissue Blood; for ALANINE AMINOTRANSFERASE / ALBUMIN / ALKALINE PHOSPHATASE / ASPARTATE AMINOTRANSFERASE / BLOOD UREA NITROGEN / CARBON DIOXIDE / CHLORIDE / CHOLESTEROL / CREATINE PHOSPHOKINASE / CREATININE / GLUCOSE / LACTATE DEHYDROGENASE / LIPASE / PHOSPHORUS / POTASSIUM / SODIUM / TOTAL BILIRUBIN / TOTAL PROTEIN / URIC ACID: tissue Plasma
[1] = 30 mg/kg, 120 h, dose level Low, time 5 day
[2] = 1093 mg/kg, 72 h, dose level High, time 3 day
[3] = 1093 mg/kg, 120 h, dose level High, time 5 day

SMILES: CCC(C)n1ncn(-c2ccc(N3CCN(c4ccc(OCC5COC(Cn6cncn6)(c6ccc(Cl)cc6Cl)O5)cc4)CC3)cc2)c1=O (centres undefined) [ITRACONAZOLE]
- ABSOLUTE BASOPHIL [1]: 0 CELLS/uL
- ABSOLUTE EOSINOPHIL [1]: 154 CELLS/uL
- ABSOLUTE LYMPHOCYTE [1]: 10619.33 CELLS/uL
- ABSOLUTE MONOCYTE [1]: 425.67 CELLS/uL
- ABSOLUTE SEGMENTED NEUTROPHIL [1]: 634.33 CELLS/uL
- BASOPHIL [1]: 0%
- EOSINOPHIL [1]: 1.33%
- ERYTHROCYTE COUNT [1]: 5.97 x10E6/uL
- HEMATOCRIT [1]: 38.27%
- HEMOGLOBIN [1]: 14.43 G/DL
- LEUKOCYTE COUNT [1]: 11.83 x10E3/uL
- LYMPHOCYTE [1]: 89.67%
- MEAN CORPUSCULAR HEMOGLOBIN [1]: 24.2 pg
- MEAN CORPUSCULAR HEMOGLOBIN CONCENTRATION [1]: 37.77 G/DL
- MEAN CORPUSCULAR VOLUME [1]: 64.1 fL
- MONOCYTE [1]: 3.67%
- NEUTROPHIL [1]: 5.33%
- NUCLEATED RED BLOOD CELLS [1]: 0 /100WBC
- PLATELET COUNT [1]: 1278.33 x10E3/uL
- ALANINE AMINOTRANSFERASE [1]: 59.67 u/L
- ALBUMIN [1]: 4.03 G/DL
- ALKALINE PHOSPHATASE [1]: 472.33 u/L
- ASPARTATE AMINOTRANSFERASE [1]: 77 u/L
- BLOOD UREA NITROGEN [1]: 9 mg/dL
- CARBON DIOXIDE [1]: 23.67 mmol/L
- CHLORIDE [1]: 102.67 MEQ/L
- CHOLESTEROL [1]: 50.33 mg/dL
- CREATINE PHOSPHOKINASE [1]: 199.67 u/L
- CREATININE [1]: 0.12 mg/dL
- GLUCOSE [1]: 162.67 mg/dL
- LACTATE DEHYDROGENASE [1]: 92.67 u/L
- LIPASE [1]: 6.33 u/L
- PHOSPHORUS [1]: 11.77 mg/dL
- POTASSIUM [1]: 6.35 MEQ/L
- SODIUM [1]: 142.93 MEQ/L
- TOTAL BILIRUBIN [1]: 0.13 mg/dL
- TOTAL PROTEIN [1]: 5.97 G/DL
- URIC ACID [1]: 1.6 mg/dL
- ABSOLUTE BASOPHIL [2]: 0 CELLS/uL
- ABSOLUTE EOSINOPHIL [2]: 143 CELLS/uL
- ABSOLUTE LYMPHOCYTE [2]: 12564.33 CELLS/uL
- ABSOLUTE MONOCYTE [2]: 467.67 CELLS/uL
- ABSOLUTE SEGMENTED NEUTROPHIL [2]: 825 CELLS/uL
- BASOPHIL [2]: 0%
- EOSINOPHIL [2]: 1%
- ERYTHROCYTE COUNT [2]: 6.06 x10E6/uL
- HEMATOCRIT [2]: 38.43%
- HEMOGLOBIN [2]: 14.67 G/DL
- LEUKOCYTE COUNT [2]: 14 x10E3/uL
- LYMPHOCYTE [2]: 89.67%
- MEAN CORPUSCULAR HEMOGLOBIN [2]: 24.23 pg
- MEAN CORPUSCULAR HEMOGLOBIN CONCENTRATION [2]: 38.17 G/DL
- MEAN CORPUSCULAR VOLUME [2]: 63.43 fL
- MONOCYTE [2]: 3.33%
- NEUTROPHIL [2]: 6%
- NUCLEATED RED BLOOD CELLS [2]: 0 /100WBC
- PLATELET COUNT [2]: 1165.33 x10E3/uL
- ALANINE AMINOTRANSFERASE [2]: 57 u/L
- ALBUMIN [2]: 4 G/DL
- ALKALINE PHOSPHATASE [2]: 535.67 u/L
- ASPARTATE AMINOTRANSFERASE [2]: 71 u/L
- BLOOD UREA NITROGEN [2]: 10.67 mg/dL
- CARBON DIOXIDE [2]: 22.67 mmol/L
- CHLORIDE [2]: 102.33 MEQ/L
- CHOLESTEROL [2]: 50.33 mg/dL
- CREATINE PHOSPHOKINASE [2]: 230.33 u/L
- CREATININE [2]: 0.12 mg/dL
- GLUCOSE [2]: 165 mg/dL
- LACTATE DEHYDROGENASE [2]: 54.33 u/L
- LIPASE [2]: 9.33 u/L
- PHOSPHORUS [2]: 10.63 mg/dL
- POTASSIUM [2]: 6.01 MEQ/L
- SODIUM [2]: 142.3 MEQ/L
- TOTAL BILIRUBIN [2]: 0.17 mg/dL
- TOTAL PROTEIN [2]: 5.87 G/DL
- URIC ACID [2]: 1.77 mg/dL
- ABSOLUTE BASOPHIL [3]: 0 CELLS/uL
- ABSOLUTE EOSINOPHIL [3]: 139 CELLS/uL
- ABSOLUTE LYMPHOCYTE [3]: 10102.67 CELLS/uL
- ABSOLUTE MONOCYTE [3]: 609.67 CELLS/uL
- ABSOLUTE SEGMENTED NEUTROPHIL [3]: 1115.33 CELLS/uL
- BASOPHIL [3]: 0%
- EOSINOPHIL [3]: 1%
- ERYTHROCYTE COUNT [3]: 5.79 x10E6/uL
- HEMATOCRIT [3]: 36.73%
- HEMOGLOBIN [3]: 14.13 G/DL
- LEUKOCYTE COUNT [3]: 11.97 x10E3/uL
- LYMPHOCYTE [3]: 84.67%
- MEAN CORPUSCULAR HEMOGLOBIN [3]: 24.4 pg
- MEAN CORPUSCULAR HEMOGLOBIN CONCENTRATION [3]: 38.47 G/DL
- MEAN CORPUSCULAR VOLUME [3]: 63.43 fL
- MONOCYTE [3]: 5%
- NEUTROPHIL [3]: 9.33%
- NUCLEATED RED BLOOD CELLS [3]: 0 /100WBC
- PLATELET COUNT [3]: 1189.33 x10E3/uL
- ALANINE AMINOTRANSFERASE [3]: 78.67 u/L
- ALBUMIN [3]: 4.17 G/DL
- ALKALINE PHOSPHATASE [3]: 402 u/L
- ASPARTATE AMINOTRANSFERASE [3]: 84.33 u/L
- BLOOD UREA NITROGEN [3]: 10.67 mg/dL
- CARBON DIOXIDE [3]: 22.33 mmol/L
- CHLORIDE [3]: 103.67 MEQ/L
- CHOLESTEROL [3]: 67 mg/dL
- CREATINE PHOSPHOKINASE [3]: 522 u/L
- CREATININE [3]: 0.21 mg/dL
- GLUCOSE [3]: 181 mg/dL
- LACTATE DEHYDROGENASE [3]: 126 u/L
- LIPASE [3]: 17.33 u/L
- PHOSPHORUS [3]: 11.7 mg/dL
- POTASSIUM [3]: 5.88 MEQ/L
- SODIUM [3]: 143.47 MEQ/L
- TOTAL BILIRUBIN [3]: 0.13 mg/dL
- TOTAL PROTEIN [3]: 5.83 G/DL
- URIC ACID [3]: 2 mg/dL

Reference: ChEMBL document CHEMBL3885881, “DrugMatrix”
